What was measured:
sedge, umbrella = experiment: Test C flooded paddy test; format: in vivo, Cyperus difformis; details: Flood
Method in brief: (§1)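 Visual injury scored against controls after 13 to 15 days in the greenhouse, using 0 (no effect) to 100 (complete control). Test compounds went straight into paddy water held 3 cm above the soil surface on 2-leaf-stage plants, with that flood depth maintained for the whole test.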

galium = experiment: Test A postemergence herbicide test; format: in vivo, Galium aparine
Method in brief: (§2)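 Potted in loam soil/sand blend; postemergence application at 1–2 leaf stage (2–10 cm). Greenhouse ~10 d. Visual injury vs untreated, 0–100 scale; 100 = complete control.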

wheat = experiment: Test A pre-/postemergence herbicide test; format: in vivo, Triticum aestivum; details: Postemergence
Method in brief: (§3)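 Approximately 10 days after treatment in the greenhouse, plants were compared with untreated controls and given a 0–100 visual injury rating. Applications: preemergence directed soil spray; postemergence on 2–10 cm plants at the one- to two-leaf stage.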

kochia = experiment: Test A pre-/postemergence herbicide test; format: in vivo, Kochia scoparia; details: for Plant response rating, Kochia: 0 to 100 scale
Method in brief: as §3

corn = experiment: Test A pre-/postemergence herbicide test; format: in vivo, Zea mays; details: Postemergence
Method in brief: as §3

barnyardgrass [1] = experiment: Test C flooded paddy test; format: in vivo, Echinochloa crus-galli; details: Flood
Method in brief: as §1

rice = experiment: Test C flooded paddy test; format: in vivo, Oryza sativa; details: Flood
Method in brief: as §1

barnyardgrass [2] = experiment: Test A pre-/postemergence herbicide test; format: in vivo, Echinochloa crus-galli; details: for Plant response rating, Barnyardgrass: 0 to 100 scale
Method in brief: as §3

ragweed = experiment: Test A pre-/postemergence herbicide test; format: in vivo, Ambrosia elatior; details: for Plant response rating, Ragweed: 0 to 100 scale
Method in brief: as §3

giant foxtail = experiment: Test A pre-/postemergence herbicide test; format: in vivo, Setaria faberii; details: for Plant response rating, Foxtail, Giant: 0 to 100 scale
Method in brief: as §3

ducksalad = experiment: Test C flooded paddy test; format: in vivo, Heteranthera limosa; details: Flood
Method in brief: as §1

ryegrass, Italian = experiment: Test A pre-/postemergence herbicide test; format: in vivo, Lolium multiflorum; details: for Plant response rating, Ryegrass, Italian: 0 to 100 scale
Method in brief: as §3

blackgrass = experiment: Test A postemergence herbicide test; format: in vivo, Alopecurus myosuroides
Method in brief: as §2

pigweed = experiment: Test A pre-/postemergence herbicide test; format: in vivo, Amaranthus retroflexus; details: for Plant response rating, Pigweed: 0 to 100 scale
Method in brief: as §3

[3] = 125 g ai/ha, scale of 0 to 100 where 0 is no effect and 100 is complete control, 13 to 15 days
[4] = 250 g ai/ha, scale of 0 to 100 where 0 is no effect and 100 is complete control, 13 to 15 days
[5] = 125 g ai/ha, 0 to 100 scale, 0 is no effect, 100 is complete control
[6] = 125 g ai/ha, visual rating, 0 no effect, 100 complete control, approximately 10 days, preemergence
[7] = Postemergence, 125 g ai/ha, 0 is no effect, 100 is complete control
[8] = preemergence, 500 g ai/ha, 0 is no effect and 100 is complete control

O=C1NC[C@@H](c2cccc(C(F)(F)F)c2)[C@@H]1C(=O)Nc1cccc(F)c1F [Compound 205]
Plant response rating, Sedge, Umbrella (sedge, umbrella; [3]): 0 | Plant response rating, Sedge, Umbrella (sedge, umbrella; [4]): 0 | Plant response rating, Sedge, Umbrella (sedge, umbrella; 500 g ai/ha, scale 0 to 100): 0 | Plant response rating, Sedge, Umbrella (sedge, umbrella; 1000 g ai/ha, scale 0 to 100): 0 | Plant response rating, Galium (galium; [5]): 30 | Galium plant response rating (0 to 100 scale, 0 is no effect, 100 is complete control) (galium; 500 g ai/ha): 60 | Plant response rating, Wheat (wheat; [5]): 0 | Wheat plant response rating (0 to 100 scale, 0 is no effect, 100 is complete control) (wheat; 500 g ai/ha): 40 | Plant response rating, Kochia (kochia; [6]): 20 | Plant response rating, Kochia (kochia; [7]): 0 | Kochia plant response rating (0 to 100 scale, 0 is no effect, 100 is complete control) (kochia; Postemergence, 500 g ai/ha): 40 | Plant response rating, Kochia (kochia; [8]): 50 | Plant response rating, Corn (corn; [5]): 0 | Corn plant response rating (0 to 100 scale, 0 is no effect, 100 is complete control) (corn; 500 g ai/ha): 0 | Plant response rating, Barnyardgrass (barnyardgrass [1]; [3]): 0 | Plant response rating, Barnyardgrass (barnyardgrass [1]; [4]): 20 | Plant response rating, Barnyardgrass (barnyardgrass [1]; 500 g ai/ha, scale 0 to 100): 30 | Plant response rating, Barnyardgrass (barnyardgrass [1]; 1000 g ai/ha, scale 0 to 100): 45 | Plant response rating, Rice (rice; [3]): 0 | Plant response rating, Rice (rice; [4]): 0 | Plant response rating, Rice (rice; 500 g ai/ha, scale 0 to 100): 0 | Plant response rating, Rice (rice; 1000 g ai/ha, scale 0 to 100): 0 | Plant response rating, Barnyardgrass (barnyardgrass [2]; [6]): 30 | Plant response rating, Barnyardgrass (barnyardgrass [2]; [7]): 40 | Barnyardgrass plant response rating (0 to 100 scale, 0 is no effect, 100 is complete control) (barnyardgrass [2]; Postemergence, 500 g ai/ha): 70 | Plant response rating, Barnyardgrass (barnyardgrass [2]; [8]): 80 | Plant response rating, Ragweed (ragweed; [6]): 0 | Plant response rating, Ragweed (ragweed; [7]): 0 | Ragweed plant response rating (0 to 100 scale, 0 is no effect, 100 is complete control) (ragweed; Postemergence, 500 g ai/ha): 0 | Plant response rating, Ragweed (ragweed; [8]): 30 | Plant response rating, Foxtail, Giant (giant foxtail; [6]): 60 | Plant response rating, Foxtail, Giant (giant foxtail; [7]): 70 | Foxtail, Giant plant response rating (0 to 100 scale, 0 is no effect, 100 is complete control) (giant foxtail; Postemergence, 500 g ai/ha): 90 | Plant response rating, Foxtail, Giant (giant foxtail; [8]): 90 | Plant response rating, Ducksalad (ducksalad; [3]): 0 | Plant response rating, Ducksalad (ducksalad; [4]): 0 | Plant response rating, Ducksalad (ducksalad; 500 g ai/ha, scale 0 to 100): 50 | Plant response rating, Ducksalad (ducksalad; 1000 g ai/ha, scale 0 to 100): 65 | Plant response rating, Ryegrass, Italian (ryegrass, Italian; [6]): 0 | Plant response rating, Ryegrass, Italian (ryegrass, Italian; [7]): 0 | Ryegrass, Italian plant response rating (0 to 100 scale, 0 is no effect, 100 is complete control) (ryegrass, Italian; Postemergence, 500 g ai/ha): 0 | Plant response rating, Ryegrass, Italian (ryegrass, Italian; [8]): 20 | Plant response rating, Blackgrass (blackgrass; [5]): 0 | Blackgrass plant response rating (0 to 100 scale, 0 is no effect, 100 is complete control) (blackgrass; 500 g ai/ha): 70 | Plant response rating, Pigweed (pigweed; [6]): 0 | Plant response rating, Pigweed (pigweed; [7]): 0 | Pigweed plant response rating (0 to 100 scale, 0 is no effect, 100 is complete control) (pigweed; Postemergence, 500 g ai/ha): 30 | Plant response rating, Pigweed (pigweed; [8]): 20
